Structures can show the parent of a compound that is named as a salt.
Tests used:
Format in all cases: physicochemical
[1] = inertness towards common formulation excipients
[2] = solid state stability (light, elevated temperature, high humidity challenges); conditions: in light, elevated temperatures and high humidity challenges
Source text: (§1) Although in general the acid addition salts of 5,8,14-triazatetracyclo[10.3.1.0^2,11.0^4,9]-hexadeca-2(11),3,5,7,9-pentaene are all crystalline, the majority of those salts are so hygroscopic as to render them poor candidates for pharmaceutical formulation use. The citrate salt exists as a hydrate under ambient conditions, where as noted above, hydrate refers to a water content of between 1 and 5% water by weight in the crystal. […] The citrate salt hydrate Form A has been prepared under different conditions: […]

[3] = aqueous solubility
[4] = water loss of Form A on drying (low humidity, elevated temperature)
Experimental: Under low humidity and elevated temperature, Form A will lose water depending on the macroscopic crystalline form. Unmilled samples of Form A may be dried in a 45° C. vacuum oven for several days without significant water loss (<1% water loss). […] Under conditions of low humidity and heat, Form A will dehydrate completely or nearly so to form a distinct pseudomorph which maintains a crystalline lattice, referred to herein as Form B. Form B contains between 0 and 1% water by weight.
Form B of the citrate salt of 5,8,14-triazatetracyclo[10.3.1.0^2,11.0^4,9]-hexadeca-2(11),3,5,7,9-pentaene can also be prepared by drying the citrate salt hydrate of 5,8,14-triazatetracyclo[10.3.1.0^2,11.0^4,9]-hexadeca-2(11),3,5,7,9-pentaene. A number of means for drying the water from the crystal lattice may be employed. Form B may be prepared by reducing the particle size of Form A, via any technique known to those of skill in the art, including jet milling, mechanical milling, etc., and drying the reduce particle size citrate salt Form A under conditions sufficient to remove the water in the lattice. […] Vacuum drying at temperatures in the range of 20 to 60° C. will yield Form B in the course of 30 minutes to 10 hours.

[5] = hygroscopicity on exposure to 90% relative humidity in a moisture chamber
Source text: as §1

[6] = native pH in aqueous solution

solid state stability [2]: excellent solid state stability
aqueous solubility (in words) [3]: high aqueous solubility
aqueous solubility ([3]; listed as citrate hydrate salt): 110 mg/mL
solubility ([3]; water): > 100 mg/mL
water loss and regain (in words) ([4]; micronized samples, as humidity and temperature are varied): readily lose and regain water
time until water loss is seen ([4]; particle size reduced, at 45° C.): less than 1 hour
water loss ([4]; unmilled samples, 45° C. vacuum oven for several days): < 1%
hygroscopicity (in words) [5]: only slightly hygroscopic
hygroscopicity ([5]; at 90% relative humidity): approximately 0.6%
hygroscopicity ([5]; exposure to 90% relative humidity in a moisture chamber): approximately 0.6 % wt/wt
native pH in aqueous solution [6]: 3.7
Compound: c1cnc2cc3c(cc2n1)C1CNCC3C1 [Form A, Citrate Salt Hydrate of 5,8,14-Triazatetracyclo[10.3.1.0^2,11.0^4,9]-Hexadeca-2(11),3,5,7,9-Pentaene (Form A)]
inertness towards common excipients used in pharmaceutical formulation [1]: relative inertness towards common excipients
